Laboratory results taken from patent EP4813979A1, “COMPOUND FOR EGFR PROTEIN DEGRADATION AND USE THEREOF” (TYK Medicines, Inc., priority 2023, dated 2025).
pIC50: −log10 of the molar value. Where two headings read alike, the source gives them in different places.

Columns and labels:
[1] = target: EGFR in Baf3-L858R-T790M-C797S (Homo sapiens, UniProt P00533, C797S/L858R/T790M); assay: EGFR PROTAC HTRF experiment (total EGFR degradation); type: cell-based; conditions: for DC50: read-out: Baf3-LTC DC50; for Dmax: read-out: Baf3-LTC Dmax
EGFR in Baf3-L858R-T790M-C797S, sequence (P00533 25-1210 T790M/C797S/L858R): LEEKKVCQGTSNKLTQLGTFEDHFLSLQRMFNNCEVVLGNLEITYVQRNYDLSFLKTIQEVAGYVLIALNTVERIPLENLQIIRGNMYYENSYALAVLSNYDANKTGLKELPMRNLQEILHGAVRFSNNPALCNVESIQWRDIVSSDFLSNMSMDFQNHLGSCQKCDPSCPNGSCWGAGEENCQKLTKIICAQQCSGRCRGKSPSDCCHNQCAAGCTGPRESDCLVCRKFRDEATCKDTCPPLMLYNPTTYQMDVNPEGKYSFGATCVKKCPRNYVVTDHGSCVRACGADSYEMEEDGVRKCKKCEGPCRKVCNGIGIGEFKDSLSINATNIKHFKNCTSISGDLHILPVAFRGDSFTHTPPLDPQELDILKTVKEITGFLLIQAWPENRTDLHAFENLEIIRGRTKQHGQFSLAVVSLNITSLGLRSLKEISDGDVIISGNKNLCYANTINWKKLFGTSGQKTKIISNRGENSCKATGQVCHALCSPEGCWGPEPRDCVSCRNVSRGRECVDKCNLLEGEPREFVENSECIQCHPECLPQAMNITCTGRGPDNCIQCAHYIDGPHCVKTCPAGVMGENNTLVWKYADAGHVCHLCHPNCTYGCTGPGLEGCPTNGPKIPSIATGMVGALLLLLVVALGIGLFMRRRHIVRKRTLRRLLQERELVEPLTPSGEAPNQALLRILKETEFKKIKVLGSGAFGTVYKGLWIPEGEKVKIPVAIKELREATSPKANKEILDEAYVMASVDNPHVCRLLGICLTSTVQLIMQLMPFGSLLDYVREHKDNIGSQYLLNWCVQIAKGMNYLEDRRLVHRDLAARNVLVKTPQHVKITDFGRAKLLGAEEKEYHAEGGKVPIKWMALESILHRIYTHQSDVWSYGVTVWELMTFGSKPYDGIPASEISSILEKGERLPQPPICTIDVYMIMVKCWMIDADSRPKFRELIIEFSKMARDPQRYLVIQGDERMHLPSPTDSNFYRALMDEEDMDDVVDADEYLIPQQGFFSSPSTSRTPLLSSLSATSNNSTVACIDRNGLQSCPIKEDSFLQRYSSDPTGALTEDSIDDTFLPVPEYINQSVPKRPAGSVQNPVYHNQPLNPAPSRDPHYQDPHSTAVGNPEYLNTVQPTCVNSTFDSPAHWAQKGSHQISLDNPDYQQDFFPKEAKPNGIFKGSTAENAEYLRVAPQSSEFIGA
Procedure: (§1) [table] Among them, B[…] -C797S (abbreviated as Baf3-DTC) is a stable Ba/F3 clone expressing exogenous EGFR gene bearing T790M, C797S and […] triple amino acid mutations, purchased from KYinno; Baf3-L858R-T790M - C797S (abbreviated as Baf3-LTC) is a stable Ba/F3 clone expressing exogenous EGFR gene bearing […], T790M, C797S triple mutations, purchased from KYinno. [table] [table] Dilutded Eu and d2 antibodies 2μl per well with detection buffer 20-fold. Then mixed the two antibody vials thoroughly. [table] Opened EnVision , locate the HTRF program, configured the board, and then read […]. The fitted curve, DC50 and Dmax of this compound could be generated using GraphPad Prism .

[2] = target: EGFR in Baf3-19del-T790M-C797S (Homo sapiens, UniProt P00533, C797S/DEL746-750/T790M); assay: as above; type: cell-based; conditions: for DC50: read-out: Baf3-DTC DC50; for Dmax: read-out: Baf3-DTC Dmax
EGFR in Baf3-19del-T790M-C797S, sequence (P00533 with tags, fused parts or gaps DEL746-750/T790M/C797S): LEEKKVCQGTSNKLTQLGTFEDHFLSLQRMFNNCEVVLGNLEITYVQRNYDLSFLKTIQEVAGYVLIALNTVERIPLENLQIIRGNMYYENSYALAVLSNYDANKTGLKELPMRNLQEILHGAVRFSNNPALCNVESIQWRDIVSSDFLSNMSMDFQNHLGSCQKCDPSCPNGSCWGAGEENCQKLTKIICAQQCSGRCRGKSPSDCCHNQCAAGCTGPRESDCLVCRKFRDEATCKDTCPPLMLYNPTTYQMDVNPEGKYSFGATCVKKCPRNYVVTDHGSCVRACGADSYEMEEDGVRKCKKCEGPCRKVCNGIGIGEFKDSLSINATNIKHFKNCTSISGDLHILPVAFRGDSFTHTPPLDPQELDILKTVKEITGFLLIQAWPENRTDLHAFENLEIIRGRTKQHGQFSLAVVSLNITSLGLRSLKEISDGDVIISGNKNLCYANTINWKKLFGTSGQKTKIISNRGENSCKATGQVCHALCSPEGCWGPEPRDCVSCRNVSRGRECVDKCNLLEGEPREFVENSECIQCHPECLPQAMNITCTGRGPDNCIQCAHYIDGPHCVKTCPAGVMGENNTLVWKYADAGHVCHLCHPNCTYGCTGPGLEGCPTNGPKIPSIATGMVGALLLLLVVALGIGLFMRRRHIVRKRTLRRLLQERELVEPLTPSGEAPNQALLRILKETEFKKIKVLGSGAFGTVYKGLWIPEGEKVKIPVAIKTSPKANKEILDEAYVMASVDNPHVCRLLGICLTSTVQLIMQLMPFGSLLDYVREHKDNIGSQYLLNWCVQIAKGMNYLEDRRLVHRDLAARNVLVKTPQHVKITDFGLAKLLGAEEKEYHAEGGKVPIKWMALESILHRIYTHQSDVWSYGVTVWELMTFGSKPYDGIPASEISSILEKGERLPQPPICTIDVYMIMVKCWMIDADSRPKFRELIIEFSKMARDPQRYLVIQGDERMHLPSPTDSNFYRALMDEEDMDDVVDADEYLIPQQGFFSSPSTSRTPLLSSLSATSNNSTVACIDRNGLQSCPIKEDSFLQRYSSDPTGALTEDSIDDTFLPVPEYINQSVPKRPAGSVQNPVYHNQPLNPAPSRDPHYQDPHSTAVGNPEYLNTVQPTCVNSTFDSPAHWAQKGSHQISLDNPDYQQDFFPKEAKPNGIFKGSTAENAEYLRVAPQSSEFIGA
Procedure: as §1

[3] = test system: HCC827; assay: Cell anti-proliferation experiment (CTG); type: cell-based; conditions: Homo sapiens, HCC827, 72 h, HCC827 (exon 19 deletion)
Excerpt: (§2) H1975 has an EGFR: T790M/L858R double mutation, PC-9 has an EGFR exon 19 deletion, and HCC827 has an exon 19 deletion mutation. Baf3-19del- T790M -C797S (Baf3-DTC) is a stable Ba/F3 clone expressing exogenous EGFR gene bearing T790M, C797S, and […] triple amino acid mutations, purchased from KYinno. Baf3-L858R-T790M - C797S (Baf3-LTC) is a stable Ba/F3 clone expressing exogenous EGFR gene bearing […], T790M, and C797S triple mutations, purchased from KYinno. A549 is a wild-type EGFR, purchased from Nanjing Kebai Biotechnology. A431 is a wild-type EGFR, purchased from Shanghai Xinyu Biotechnology. CellCounting-Lite2.0, Trypsin EDTA, 37°C CO2 incubator, cell counter, EnVision Serial No. 1050454.
(§3) • A) Digested logarithmic phase cells with Trypsin EDTA, added culture medium to stop the reaction, and mixing well with a pipette to prepare a cell suspension. • B) Used Vi-cell to determine cell concentration, and prepared a suspension of 15,000-25,000 cells per milliliter according to the experimental purpose and cell characteristics. • C) After prepared the cell suspension, mixed it gently and added 100 µL to each well, so that the cell density to be tested is 1500-2500 per well.
(§4) • A) Weighed approximately 2 mg the compound and calculated the required volume of DMSO according to the formula: Compound mass (mg) * Compound purity (%) / Compound molecular weight * 1000. • B) Placed the inoculated cell culture plate into an incubator and incubated for about 24 hours. Then added compounds of varying concentrations. • C) Diluted the 10mM compound stock solution to […] with culture medium, and added the […] compound solution to the second column of the deep well plate in sequence, and added […] culture medium containing 0.5% DMSO to the third to eleventh columns. • D) Gradient dilution: Taked 125 µL solution from the second column and added it to the third column, mix well; then taked 125 µL solution from the third column and added it to the fourth column, repeated this operation until the tenth column. • E) Used a multichannel pipette, aspirated 25 µL the compound from the deep-well plate and added it to a 96-well culture plate. Repeated this process three times for each compound on the 96-well plate. This will ultimately create a concentration gradient of up to 10,000 nM at a 1:4 ratio on the 96-well plate.
(§5) • A) The effects of the compound were observed under an inverted microscope after the 96-well plate was incubated in an incubator for 72 hours. • B) Added 25 µL CTG solution to each well, placed on a shaker for 10 minutes, and read the […] of each well.
(§6) Calculate the % Cell Viability using the following formula: %Cell Viability = 100% × (Lum_Sample−Lum_LC)/(Lum_HC−Lum_LC) [formula] • Lum_HC: Cell readings from the 0.1% DMSO control group • Lum_Sample: Cell readings with added compound • Lum_LC: Blank culture medium reading
(§7) The IC50 value was obtained by curve fitting using GraphPad Prism 8 software.

[4] = test system: A431; assay: Cell anti-proliferation experiment (CTG); type: cell-based; conditions: Homo sapiens, A-431, 72 h, A431 (wild-type EGFR)
Excerpt: as §2, §3, §4, §5, §6, §7

[5] = test system: Baf3-L858R-T790M - C797S (Baf3-LTC); assay: Cell anti-proliferation experiment (CTG); type: cell-based; conditions: 72 h
Excerpt: as §2, §3, §4, §5, §6, §7

[6] = test system: H1975; assay: Cell anti-proliferation experiment (CTG); type: cell-based; conditions: Homo sapiens, NCI-H1975, 72 h, H1975 (EGFR T790M/L858R)
Excerpt: as §2, §3, §4, §5, §6, §7

[7] = test system: Baf3-19del- T790M -C797S (Baf3-DTC); assay: Cell anti-proliferation experiment (CTG); type: cell-based; conditions: 72 h
Excerpt: as §2, §3, §4, §5, §6, §7

[8] = test system: A549; assay: Cell anti-proliferation experiment (CTG); type: cell-based; conditions: Homo sapiens, A549, 72 h, A549 (wild-type EGFR)
Excerpt: as §2, §3, §4, §5, §6, §7

[9] = test system: PC-9; assay: Cell anti-proliferation experiment (CTG); type: cell-based; conditions: Homo sapiens, PC-9, 72 h, PC-9 (EGFR exon 19 deletion)
Excerpt: as §2, §3, §4, §5, §6, §7

[10] = Pharmacokinetic tests in male SD rats; type: in vivo; conditions: oral gavage (po), 10 mg/kg, plasma; for AUC(0-inf) / AUC(0-t) / Cmax / MRT last / Tmax: rat
Procedure: Three healthy adult male SD rats, 6-8 weeks old, weighing 200-300 grams.
EDTA-Na2 anticoagulant, weighed 11.2 g EDTA-Na2 and placed it in a reagent bottle. Added 100 mL physiological saline and shaked to dissolve completely. After preparation, dispensed into 1.5 mL centrifuge tubes, each containing approximately 20 µL, for whole blood sample collection.
Accurately weighed approximately 10 mg the sample to be tested, added 10% of the converted total volume of DMSO to dissolve it, and then slowly added 90% of the total volume of 0.5% MC solvent while stirring. Sonicated and vortex to mix thoroughly to obtain a solution of the preparation that is considered to be homogeneous, with a concentration of 1 mg/mL. Prepared fresh immediately before use.
Piped 0.2 mL the sample into a 1.5 mL centrifuge tube and store at -80°C for analysis of the concentration of the drug solution.
Animals were housed in rat cages and fasted for at least 10 hours starting the day before the experiment, but water was allowed. On the day of the experiment, each animal was weighed and marked on its tail. Blank blood samples were collected before drug administration. Blood was collected via tail vein.
• Route of administration: Oral gavage (po); • Dosage concentration: 1 mg/ml; • Dosage: 10 mg/kg; • Dosage volume: 10 mL/kg; • Procedure: Hold the rat upright with your left hand wearing a bite-proof glove, insert the gavage needle into the throat through the mouth, and insert the needle when feeling no obvious resistance. Then inject the drug into the stomach.
Whole blood (0.1-0.2 ml) was collected from test animals at 0.5 h, 1 h, 2 h, 4 h, 6 h, 8 h, 12 h, and 24 h after drug administration. The samples were placed in EDTA-Na 2 anticoagulant tubes, inverted 3-4 times to mix, and centrifuged at 4°C, 2000 g for 5 min to separate the supernatant plasma. The plasma was promptly transferred to -80°C for storage until analysis. Blood was collected via tail vein.
A quantitative detection method for the analyte was established using Shimadzu liquid chromatography and Triple Quad™ 6500+AB mass spectrometry. The concentration of the parent drug in plasma was analyzed. The analytical results were controlled for variation using quality control samples, with the accuracy of the quality control samples expected to be between 80% and 120%.
The main pharmacokinetic parameters were calculated using a non-compartmental model in Winnonlin Phoenix software. These parameters included the area under the curve (AUC(0-t) and AUC(0-∞)), elimination half-life (T1/2), maximum plasma concentration (Cmax ), and time to reach maximum plasma concentration (Tmax).The results are shown in Table 3.

[11] = Baf3-LTC, incubated 16 hours, HTRF total EGFR
[12] = Baf3-DTC, incubated 16 hours, HTRF total EGFR

Structure (SMILES): CCc1cc(Nc2ncc(Cl)c(Nc3ccc(Cl)cc3C(C)(C)O)n2)c(OC)cc1N1CCN(C(=O)CN2CCC(c3cc4c(cc3F)c(N3CCC(=O)NC3=O)nn4C)C(F)(F)C2)CC1 (stereo not drawn) [TA-009]
- DC50 [1, 11]: 100 to 1000 nM
- Dmax [1, 11]: 70 to 100%
- DC50 [2, 12]: 100 to 1000 nM
- Dmax [2, 12]: 70 to 100%

Structure (SMILES): CCc1cc(Nc2ncc(Br)c(Nc3ccccc3P(C)(C)=O)n2)c(OC)cc1N1CCN(C(=O)Cn2nc(C)c(-c3cc4c(cc3F)c(N3CCC(=O)NC3=O)nn4C)c2C)CC1 [TC-144]
- pIC50 ([3]; class symbol): 6.00 to 7.00
- pIC50 ([4]; class symbol): < 6.00
- pIC50 ([5]; class symbol): > 8.00
- pIC50 ([6]; class symbol): 7.00 to 8.00
- pIC50 ([7]; class symbol): > 8.00
- pIC50 ([8]; class symbol): 6.00 to 7.00
- pIC50 ([9]; class symbol): 6.00 to 7.00
- HL [10]: 3.21 h
- AUC(0-inf) ([10]; in vivo): 4140 ng·h/mL
- AUC(0-t) ([10]; in vivo): 4120 ng·h/mL
- Cmax ([10]; in vivo): 700 ng/mL
- MRT last ([10]; in vivo): 4.23 h
- Tmax ([10]; in vivo): 0.67 h

Structure (SMILES): CCc1cc(Nc2ncc(Cl)c(Nc3ccccc3P3(=O)CCCC3)n2)c(OC)cc1N1CCN(C(=O)CN2CCC(c3cc4c(cc3F)c(N3CCC(=O)NC3=O)nn4C)C(F)(F)C2)CC1 (stereo not drawn) [TA-045]
- DC50 [1, 11]: 10 to 100 nM
- Dmax [1]: 70 to 100%
- DC50 [2, 12]: 10 to 100 nM
- Dmax [2]: 70 to 100%

Structure (SMILES): CCc1cc(Nc2ncc(Cl)c(Nc3ccccc3P(C)(C)=O)n2)c(OC)cc1N1CC2(CCN(C(=O)CN3CCC(c4cc5c(cc4F)c(N4CCC(=O)NC4=O)nn5C)CC3)CC2)C1 [TC-093]
- pIC50 ([3]; class symbol): 7.00 to 8.00
- pIC50 ([4]; class symbol): < 6.00
- pIC50 ([5]; class symbol): 7.00 to 8.00
- pIC50 ([6]; class symbol): 7.00 to 8.00
- pIC50 ([7]; class symbol): 7.00 to 8.00
- pIC50 ([8]; class symbol): < 6.00
- pIC50 ([9]; class symbol): 6.00 to 7.00
- HL [10]: 3.43 h
- AUC(0-inf) [10]: 4930 ng·h/mL
- AUC(0-t) [10]: 5030 ng·h/mL
- Cmax [10]: 665 ng/mL
- MRT last [10]: 5.98 h
- Tmax [10]: 4 h

Structure (SMILES): CCc1cc(Nc2ncc(Cl)c(Nc3ccccc3P(C)(C)=O)n2)c(OC)cc1N1CCC2(CC1)CN(C(=O)CN1CCC(c3cc4c(cc3F)c(N3CCC(=O)NC3=O)nn4C)C(F)(F)C1)C2 (stereo not drawn) [TC-225]
- pIC50 ([3]; class symbol): 6.00 to 7.00
- pIC50 ([3]; number after the class symbol): 6.24
- pIC50 ([4]; class symbol): < 6.00
- pIC50 ([4]; number after the class symbol): 5.79
- pIC50 ([5]; class symbol): 7.00 to 8.00
- pIC50 ([5]; number after the class symbol): 7.78
- pIC50 ([6]; class symbol): 6.00 to 7.00
- pIC50 ([6]; number after the class symbol): 6.54
- pIC50 ([7]; class symbol): 7.00 to 8.00
- pIC50 ([7]; number after the class symbol): 7.87
- pIC50 ([8]; class symbol): 6.00 to 7.00
- pIC50 ([8]; number after the class symbol): 6.02
- pIC50 ([9]; class symbol): 6.00 to 7.00
- pIC50 ([9]; number after the class symbol): 6.36
